Data on one molecule can be found in publication PMC9037349, “Elucidation of molecular interactions of theaflavin monogallate with camel milk lactoferrin: detailed spectroscopic and dynamic simulation studies” (RSC Advances, 2021).

SMILES strings stand for the structures.

For this assay, the target named is T1, camel milk lactoferrin (Camelus dromedarius, UniProt Q9TUM0).
T1 construct: gene LTF; lactoferrin isolated and purified from camel milk
T1 sequence (Q9TUM0 20-708): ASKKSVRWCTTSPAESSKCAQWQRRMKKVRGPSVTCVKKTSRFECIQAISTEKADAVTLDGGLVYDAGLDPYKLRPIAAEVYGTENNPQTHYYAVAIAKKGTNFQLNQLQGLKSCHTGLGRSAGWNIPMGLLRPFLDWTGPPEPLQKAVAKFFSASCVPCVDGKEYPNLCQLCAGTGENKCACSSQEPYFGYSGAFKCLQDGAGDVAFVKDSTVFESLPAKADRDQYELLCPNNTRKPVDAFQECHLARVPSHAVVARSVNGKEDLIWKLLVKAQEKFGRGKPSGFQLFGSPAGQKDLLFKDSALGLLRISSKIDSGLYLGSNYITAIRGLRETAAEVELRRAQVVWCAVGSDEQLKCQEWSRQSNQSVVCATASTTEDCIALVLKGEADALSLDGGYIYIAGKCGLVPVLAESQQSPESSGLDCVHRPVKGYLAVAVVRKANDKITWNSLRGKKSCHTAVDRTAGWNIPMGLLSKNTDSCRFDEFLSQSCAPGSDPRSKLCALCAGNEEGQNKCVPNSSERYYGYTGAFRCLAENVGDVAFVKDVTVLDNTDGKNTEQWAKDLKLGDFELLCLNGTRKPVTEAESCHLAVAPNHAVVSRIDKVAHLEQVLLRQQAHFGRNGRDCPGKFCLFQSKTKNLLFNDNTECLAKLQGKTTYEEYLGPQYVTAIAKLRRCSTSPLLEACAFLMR
As to the kind of experiment: intrinsic fluorescence quenching titration (static; modified Stern-Volmer, […] K), supported by FRET, ANS fluorescence and CD. The class given is binding. The settings on record: read-out: K a × 10^4 (M^-1) (converted).

As for `O=C(O[C@@H]1Cc2c(O)cc(O)cc2O[C@@H]1c1cc(O)c(=O)c2c(O)c(O)cc([C@H]3Oc4cc(O)cc(O)c4C[C@H]3O)c2c1)c1cc(O)c(O)c(O)c1` [theaflavin monogallate], the Kd was 23.4 µM.
